The text below walks through data of patent US6562609B1, “Cholesterol 25-hydroxylase” (Board of Regents, The University of Texas System, priority 1998, dated 2003).

The target of test [1] is T1, cholesterol 25-hydroxylase (Mus musculus, UniProt Q9Z0F5).
T1 construct: a full-length mouse 25-hydroxylase cDNA fragment from plasmid pCMV-m25; expressed in transfected cells; host or cells: CHOP cells (CHO derivative expressing polyoma middle T antigen)
T1 sequence (Q9Z0F5 1-298): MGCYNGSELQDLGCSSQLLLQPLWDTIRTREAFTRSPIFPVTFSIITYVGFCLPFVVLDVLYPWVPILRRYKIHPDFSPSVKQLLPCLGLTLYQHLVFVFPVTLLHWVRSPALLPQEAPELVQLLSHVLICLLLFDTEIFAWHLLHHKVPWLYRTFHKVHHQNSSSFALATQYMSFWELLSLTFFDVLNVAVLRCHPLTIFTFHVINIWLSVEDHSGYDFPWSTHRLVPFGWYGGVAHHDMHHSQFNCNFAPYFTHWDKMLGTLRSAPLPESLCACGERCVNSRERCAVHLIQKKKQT
Nature of the test: 25-hydroxylase activity in CHOP cells transfected with the murine cDNA. In kind it is cell-based. The conditions noted are these: treatment of transfected CHOP cells. The procedure:
(§1) Measurement of cholesterol 25-hydroxylase activity in whole cells—The transfection medium containing the cationic lipid was aspirated and replaced with 3 ml of Medium B (DMEM containing 10% newborn calf lipoprotein-poor serum, 100 u/ml penicillin, and 100 μg/ml streptomycin sulfate) supplemented with 5 μI of [4-^14C]cholesterol (56.6 mCi/mmol; 0.040 μCi/μl; New England Nuclear, Boston, Mass.). Cells were incubated for a further 60 h at 37° C. in an atmosphere of 8.8% CO2.
(§2) Media from the transfected cells were collected and extracted with 8 ml of chloroform:methanol (2:1, v/v). The organic phase from each sample was taken to dryness under a stream of nitrogen and residues were dissolved in 40 μl aliquots of chloroform:methanol (2:1, v/v) and applied to 20×20 cm prescored LK5DF silica gel TLC plates (Whatman, Hillsboro, Oreg.) with preadsorbent layers. The plates were developed in ethyl acetate:toluene (4:6, v/v), and exposed to a Fuji BAS-MP phosphoimager plate overnight. Phosphoimage analysis was then performed on a Fuji BAS 1000 apparatus.
Inhibitor Studies—Transfection of CHOP cells was carried out as described above with the following exceptions. […] Cells and/or cells plus medium were harvested at the indicated times, extracted, and the conversion of substrate into [4-^14C]25-hydroxycholesterol product was determined by thin layer chromatography as described above. […]

Test [2] concerns the target T2, human 25-hydroxylase (Homo sapiens, UniProt O95992).
T2 construct: expressed in transfected cells; host or cells: human embryonic kidney 293 cells
T2 sequence (O95992 1-272): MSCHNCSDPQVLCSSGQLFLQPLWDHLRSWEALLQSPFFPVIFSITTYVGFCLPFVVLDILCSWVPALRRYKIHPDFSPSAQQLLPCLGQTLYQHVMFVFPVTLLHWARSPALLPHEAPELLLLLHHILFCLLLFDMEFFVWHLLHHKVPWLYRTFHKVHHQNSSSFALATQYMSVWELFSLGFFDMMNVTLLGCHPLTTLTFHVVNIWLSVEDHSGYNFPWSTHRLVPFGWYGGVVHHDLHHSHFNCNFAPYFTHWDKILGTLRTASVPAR
Nature of the test: 25-hydroxylase activity in 293 cells transfected with the human cDNA. In kind it is cell-based. The conditions noted are these: treatment of transfected 293 cells. The procedure: as §1, §2
This EST was used to isolate a near full-length cDNA encoding the human 25-hydroxylase as described in Experimental Procedures. Transfection into 293 cells of the human cDNA cloned in a pCMV6 vector produced abundant 25-hydroxylase enzyme activity.

The subject of test [3] is gene transcription. The conditions noted are these: compared with 24- and 27-hydroxycholesterol, in vitro; cited from earlier work.
The subject of test [4] is cholesterol 25-hydroxylase. Nature of the test: Inhibition of cholesterol 25-hydroxylase by sterols in transfected cells. In kind it is cell-based. The conditions noted are these: for rank order of inhibition of cholesterol 25-hydroxylase: 3 μM [14C]cholesterol, cells treated with 2-hydroxypropyl-β-cyclodextrin; for decrease of enzyme activity: sterol 3 μM, equimolar with [14C]cholesterol (3 μM). The procedure: as §2
Inhibitor Studies—Transfection of CHOP cells was carried out as described above with the following exceptions. Cells were plated on Day 0 at a density of 150,000 cells/well in 6-well plates containing Medium C. On Day 1, cells were transfected with 2.7 μg of the indicated cholesterol 25-hydroxylase expression plasmid and 0.3 μg of pVA-1, using 12 μl of pfx-8 as transfection lipid. After 4 h, the lipid-DNA mixture was removed and 1.5 ml of Medium D was added. In certain experiments, this medium was aspirated and replaced on Day 2 with 1 ml per well of a 20 mg/ml solution of 2-hydroxypropyl-β-cyclodextrin (Sigma) in DMEM/Ham's F12 (1:1) medium and returned to the incubator. The cyclodextrin containing medium was replaced after 1-1.5 h with 1.5 ml of Medium D, and substrate and inhibitors were then added, each in a volume of 4.5 μl of ethanol. The concentration of [4-^14C]cholesterol substrate (specific activity=26.8 mCi/mmol) was 3 μM. Inhibitors were added to final concentrations of 3, 10 or 30 μM. Cells and/or cells plus medium were harvested at the indicated times, extracted, and the conversion of substrate into [4-^14C]25-hydroxycholesterol product was determined by thin layer chromatography as described above. The inhibitors used were cholesterol(5-cholesten-3β-ol), cholestanol (5α-cholestan-3β-ol), epicholesterol (5-cholesten-3α-ol), coprostanol(5β-cholestan-3β-ol), desmosterol(5,24-cholestadien-3β-ol), β-sitosterol(5-cholesten-24β-ethyl-3β-ol ), 25-hydroxycholesterol(cholest-5-ene-3β,25-diol), and 27-nor-25-oxocholesterol(27-nor-25-oxo-5-cholesten-3β-ol). All steroids were purchased from Steraloids Inc. (Wilton, N.H.), except cholesterol, which was from Sigma (St. Louis, Mo.).
We next tested the ability of different sterols to inhibit cholesterol 25-hydroxylase. In these experiments, 293 cells were transfected with a 25-hydroxylase cDNA, treated with 2-hydroxypropyl-β-cyclodextrin to remove endogenous cholesterol, and then incubated with 3 μM [^14C]cholesterol and the indicated concentrations of unlabeled inhibitor sterol. The rank order of inhibition for the […] sterols tested was desmosterol>cholestanol>25-hydroxycholesterol>epicholesterol>sitosterol>>coprostanol=25-oxo-27-nor-cholesterol. […] In the case of desmosterol (5,24-cholestadien-3β-ol), which can not be 25-hydroxylated due to the Δ^24 bond, this sterol appears to act as a true inhibitor.

For the molecule 2-hydroxypropyl-β-cyclodextrin, the figures for the “stimulation of 25-hydroxylase activity” value in test [1] and in test [2] were “approximately 10 fold” and “approximately five-fold”, respectively.

In the case of `C[C@H](CCCC(C)(C)O)[C@H]1CC[C@H]2[C@@H]3CC=C4C[C@@H](O)CC[C@]4(C)[C@H]3CC[C@]12C` [25-hydroxycholesterol, cholest-5-ene-3β,25-diol], in test [3], the “potency as regulator of gene transcription among natural oxysterols” value is listed as “most potent regulator of gene transcription”. In test [4], the “rank order of inhibition of cholesterol 25-hydroxylase” value is “desmosterol>cholestanol>25-hydroxycholesterol>epicholesterol>sitosterol>>coprostanol=25-oxo-27-nor-cholesterol”.

Turning to `CC(=O)CCC[C@@H](C)[C@H]1CC[C@H]2[C@@H]3CC=C4C[C@@H](O)CC[C@]4(C)[C@H]3CC[C@]12C` [25-oxo-27-nor-cholesterol, 27-nor-25-oxo-5-cholesten-3β-ol], the “rank order of inhibition of cholesterol 25-hydroxylase” value in test [4] was “desmosterol>cholestanol>25-hydroxycholesterol>epicholesterol>sitosterol>>coprostanol=25-oxo-27-nor-cholesterol”.

For the molecule `CC(C)CCC[C@@H](C)[C@H]1CC[C@H]2[C@@H]3CC[C@H]4C[C@@H](O)CC[C@]4(C)[C@H]3CC[C@]12C` [cholestanol, 5α-cholestan-3β-ol], the “rank order of inhibition of cholesterol 25-hydroxylase” value in test [4] is listed as “desmosterol>cholestanol>25-hydroxycholesterol>epicholesterol>sitosterol>>coprostanol=25-oxo-27-nor-cholesterol”.

As for `CC(C)CCC[C@@H](C)[C@H]1CC[C@H]2[C@@H]3CC[C@@H]4C[C@@H](O)CC[C@]4(C)[C@H]3CC[C@]12C` [coprostanol, 5β-cholestan-3β-ol], in test [4], the “rank order of inhibition of cholesterol 25-hydroxylase” value is on record as “desmosterol>cholestanol>25-hydroxycholesterol>epicholesterol>sitosterol>>coprostanol=25-oxo-27-nor-cholesterol” and the “decrease of enzyme activity” value is listed as “did not inhibit the enzyme”.

Regarding `CC(C)=CCC[C@@H](C)[C@H]1CC[C@H]2[C@@H]3CC=C4C[C@@H](O)CC[C@]4(C)[C@H]3CC[C@]12C` [desmosterol, 5,24-cholestadien-3β-ol], in test [4], the “rank order of inhibition of cholesterol 25-hydroxylase” value is “desmosterol>cholestanol>25-hydroxycholesterol>epicholesterol>sitosterol>>coprostanol=25-oxo-27-nor-cholesterol” and the “decrease of enzyme activity” value was determined as 30%.

`CC(C)CCC[C@@H](C)[C@H]1CC[C@H]2[C@@H]3CC=C4C[C@H](O)CC[C@]4(C)[C@H]3CC[C@]12C` [epicholesterol, 5-cholesten-3α-ol]: the “rank order of inhibition of cholesterol 25-hydroxylase” value in test [4] was “desmosterol>cholestanol>25-hydroxycholesterol>epicholesterol>sitosterol>>coprostanol=25-oxo-27-nor-cholesterol”.

For the molecule `CC[C@H](CC[C@@H](C)[C@H]1CC[C@H]2[C@@H]3CC=C4C[C@@H](O)CC[C@]4(C)[C@H]3CC[C@]12C)C(C)C` [sitosterol, 5-cholesten-24β-ethyl-3β-ol], the “rank order of inhibition of cholesterol 25-hydroxylase” value in test [4] is given as “desmosterol>cholestanol>25-hydroxycholesterol>epicholesterol>sitosterol>>coprostanol=25-oxo-27-nor-cholesterol”.
